Where two headings read alike, the source gives them in different places.
Legend:
[1] = tested on: Stachybotrys chartarum
[2] = tested on: Mucor sp
[3] = tested on: Aspergillus niger
[4] = tested on: Rhizoctonia solani
[5] = tested on: Alternaria sp
[6] = tested on: Fusarium graminearum
[7] = tested on: Pythium ultimum
[8] = tested on: Stachybotrys; details: 1000 ppm, lab trial
[9] = tested on: Penicillium; details: lab trial
[10] = tested on: Stachybotrys chartarum; details: for growth during incubation period: 144 hour incubation, all concentrations; for growth: all concentrations (400 to 2000 ppm), malt extract agar, 25° C.
[11] = tested on: Aspergillus parasiticus; details: for growth: all concentrations, malt extract agar, 25° C., 144 hours
Description: (§1) For each fungus tests were conducted on malt extract agar that was amended with five concentrations of sucrose octanoate. The control medium was standard malt extract agar. The concentrations were prepared based on 100% active ingredient. The parts per million were calculated afterwards to account for a concentration of 40% active ingredient. All fungi in the tests were incubated at 25° C. for 144 hours.
(§2) For each fungi tests were conducted on malt extract agar that was amended with five concentrations of sorbitol octanoate. The control medium was standard malt extract agar. The concentrations were prepared based on 100% active ingredient. The parts per million were calculated afterwards to account for a concentration of 40% active ingredient. All fungi in the tests were incubated at 25° C. for 144 hours.

[12] = tested on: Aspergillus flavus; details: for growth: all concentrations, malt extract agar, 25° C., 144 hours
Description: as §1, §2

[13] = tested on: Penicillium chrysogenum; details: low concentrations, malt extract agar, 25° C., 144 hours
Description: as §1, §2

[14] = tested on: Rhizopus; details: 1000 ppm, lab trial
[15] = tested on: three different fungi; details: 2000 ppm, lab trial
[16] = tested on: Rhizopus stolonifer; details: for growth during incubation period: 144 hour incubation
Description: as §1, §2

[17] = 2000 ppm, d.f=2, p<0.05, unpaired one-tailed T-tests

Zinc Mono-Sucrose Succinate [Compound A]
reduction of radial growth ([1]; 1000 ppm): 66.0%
sporulation ([1]; 1000 ppm medium, high levels on control medium): reduced to low levels
radial growth diameter ([1]; 1000 ppm, control medium 19.7 mm): 6.7 mm
growth measurement ([1]; 5000 ppm, very limited growth): 2.7 mm
reduction of radial growth ([2]; 1000 ppm): 74.4%
radial growth diameter ([2]; 1000 ppm, control 66.5 mm): 17 mm
growth ([2]; 5000 ppm): no significant level of growth
reduction of radial growth ([3]; 1000 ppm): 65.6%
sporulation ([3]; 1000 ppm medium, also high on control medium): high
radial growth diameter ([3]; 1000 ppm, control medium 63.0 mm): 21.7 mm
growth ([3]; 5000 ppm): no significant level of growth
reduction of radial growth ([4]; 1000 ppm): 75.4%
radial growth diameter ([4]; 1000 ppm, control 62.3 mm): 15.3 mm
growth measurement ([4]; 5000 ppm, very limited growth): 10 mm
reduction of radial growth ([5]; 1000 ppm): 64.9%
radial growth diameter ([5]; 1000 ppm, control 28.5 mm): 10 mm
growth ([5]; 5000 ppm): no significant level of growth
reduction of radial growth ([6]; 1000 ppm): 73%
radial growth diameter ([6]; 1000 ppm, control 67.6 mm): 18.3 mm
inhibition ([6]; 5000 ppm): no additional inhibition over the 1000-ppm assay
reduction of radial growth ([7]; 1000 ppm): 92.3%
radial growth diameter ([7]; 1000 ppm, control 85 mm): 6.6 mm
growth ([7]; 5000 ppm): no significant level of growth

sorbitol octanoate
growth of fungus [8]: prevented the growth
growth of fungus ([9]; 2000 ppm): some growth
growth during incubation period [10]: No growth
growth [10]: inhibited
growth [11]: able to grow
growth [12]: able to grow
growth [13]: able to grow, although slowly compared to the control
growth of fungus [14]: prevented the growth

sucrose octanoate
growth of fungus [8]: prevented the growth
growth of fungi [15]: prevented the growth
growth of fungus ([9]; 1000 ppm): some growth
growth during incubation period [10]: No growth
growth [10]: inhibited
growth compared with control plates [11, 17]: significantly less
growth [11]: able to grow
growth compared with control plates [12, 17]: significantly less
growth [12]: able to grow
growth [13]: able to grow, although slowly compared to the control
growth of fungus [14]: prevented the growth
growth during incubation period ([16]; all concentrations tested): no growth
growth during incubation period ([16]; all concentrations with the exception of 400 ppm level): no growth
growth ([16]; all concentrations tested (400 to 2000 ppm), malt extract agar, 25° C.): inhibited

Reference: US20050272692A1, “Sucrose ester compounds useful as fungicides” (priority 2004, published 2005)
